According to patent US10519154B2, “7-substituted 1-pyridyl-naphthyridine-3-carboxylic acid amides and use thereof” (Bayer Pharma Aktiengesellschaft, priority 2016, dated 2019):

Target: T1, human M2 receptor (Homo sapiens, UniProt P08172)
T1 sequence (P08172 1-466): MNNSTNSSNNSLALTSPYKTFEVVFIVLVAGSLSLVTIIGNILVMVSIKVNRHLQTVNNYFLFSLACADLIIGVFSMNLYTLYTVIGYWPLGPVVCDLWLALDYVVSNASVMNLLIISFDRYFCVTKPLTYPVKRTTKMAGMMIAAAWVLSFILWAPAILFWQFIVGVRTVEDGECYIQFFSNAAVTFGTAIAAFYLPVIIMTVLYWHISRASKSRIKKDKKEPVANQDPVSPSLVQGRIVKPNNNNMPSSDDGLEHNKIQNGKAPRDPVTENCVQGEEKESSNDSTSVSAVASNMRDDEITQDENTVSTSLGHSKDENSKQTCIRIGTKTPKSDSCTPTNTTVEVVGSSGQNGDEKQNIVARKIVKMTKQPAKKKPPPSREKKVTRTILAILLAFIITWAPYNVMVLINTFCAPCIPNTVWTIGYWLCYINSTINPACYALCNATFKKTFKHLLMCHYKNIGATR
Test: Functional M2-GIRK1/4 activation test: allosteric potency (EC50) and efficiency
Conditions: for EC50: Receptor activity EC50, CHO-DUKX-M2-GIRK cells, acetylcholine at EC20, in some cases mean of two or more determinations; for Emax: read-out: Efficiency, boosting of the acetylcholine effect at EC20 acetylcholine concentration

| EC50 | Emax (CHO-DUKX-M2-GIRK cells) | Efficiency (boosting of the acetylcholine effect at EC20 acetylcholine concentration, CHO-DUKX-M2-GIRK cells) | Structure (SMILES) |
| --- | --- | --- | --- |
| 37 nM | 99.5% |  | O=C(NC(c1ccc(F)cc1)C(F)(F)F)c1cn(-c2ncc(F)cc2F)c2nc(N3C[C@@H](O)CC3=O)ccc2c1=O (mixture of isomers) [Example 11, 1-(3,5-Difluoropyridin-2-yl)-7-[(4S)-4-hydroxy-2-oxopyrrolidin-1-yl]-4-oxo-N-[2,2,2-trifluoro-1-(4-fluorophenyl)ethyl]-1,4-dihydro-1,8-naphthyridine-3-carboxamide] |
| 35 nM | 94% |  | CC(NC(=O)c1cn(-c2ncc(F)cc2F)c2nc(N3C[C@@H](O)CC3=O)ccc2c1=O)C(F)(F)C(F)(F)F (mixture of isomers) [Example 76, 1-(3,5-Difluoropyridin-2-yl)-7-[(4S)-4-hydroxy-2-oxopyrrolidin-1-yl]-4-oxo-N-[3,3,4,4,4-pentafluorobutan-2-yl]-1,4-dihydro-1,8-naphthyridine-3-carboxamide] |
| 55 nM | 100% |  | O=C(NC(c1ccc(F)cc1)C(F)(F)F)c1cn(-c2ncc(F)cc2F)c2nc(N3C[C@@H](O)CC3=O)ccc2c1=O (single isomer, unassigned) [Example 12] |
| 150 nM | 92% |  | C[C@@H]1CN(c2ccc3c(=O)c(C(=O)NC(C)(C)C(F)F)cn(-c4ncc(F)cc4F)c3n2)C(=O)N1 [Example 144, N-(1,1-difluoro-2-methylpropan-2-yl)-1-(3,5-difluoropyridin-2-yl)-7-[(4R)-4-methyl-2-oxoimidazolidin-1-yl]-4-oxo-1,4-dihydro-1,8-naphthyridine-3-carboxamide] |
| 527 nM | 84.3% |  | O=C(N[C@H](C1CC1)C(F)(F)F)c1cn(-c2ncc(F)cc2Cl)c2nc(N3C[C@@H](O)[C@H](O)C3)ccc2c1=O [Example 51, 1-(3-Chloro-5-fluoropyridin-2-yl)-N-[(1R)-1-cyclopropyl-2,2,2-trifluoroethyl]-7-[(3R,4R)-3,4-dihydroxypyrrolidin-1-yl]-4-oxo-1,4-dihydro-1,8-naphthyridine-3-carboxamide] |
| 74 nM | 92.5% |  | CC[C@@H](NC(=O)c1cn(-c2ncc(F)cc2Cl)c2nc(N3CC4CC4(O)C3)ccc2c1=O)C(F)(F)F (mixture of isomers) [Example 48, 1-(3-Chloro-5-fluoropyridin-2-yl)-7-[1-hydroxy-3-azabicyclo[3.1.0]hex-3-yl]-4-oxo-N-[(2R)-1,1,1-trifluorobutan-2-yl]-1,4-dihydro-1,8-naphthyridine-3-carboxamide] |
| 350 nM | 94.7% |  | O=C(N[C@H](C1CC1)C(F)(F)F)c1cn(-c2ncccc2Cl)c2nc(N3CC4CC4(O)C3)ccc2c1=O (mixture of isomers) [Example 54, 1-(3-Chloropyridin-2-yl)-N-[(1R)-1-cyclopropyl-2,2,2-trifluoroethyl]-7-[1-hydroxy-3-azabicyclo[3.1.0]hex-3-yl]-4-oxo-1,4-dihydro-1,8-naphthyridine-3-carboxamide] |
| 87 nM | 100% |  | O=C(N[C@H](C1CC1)C(F)(F)F)c1cn(-c2ncc(F)cc2F)c2nc(N3CCNC3=O)ccc2c1=O [Example 65, N-[(1R)-1-Cyclopropyl-2,2,2-trifluoroethyl]-1-(3,5-difluoropyridin-2-yl)-4-oxo-7-(2-oxoimidazolidin-1-yl)-1,4-dihydro-1,8-naphthyridine-3-carboxamide] |
| 220 nM | 100% |  | O=C(N[C@@H](C1CC1)C(F)(F)F)c1cn(-c2ncc(F)cc2F)c2nc(N3C[C@@H](O)[C@@H](O)C3)ccc2c1=O [Example 62, N-[(1S)-1-Cyclopropyl-2,2,2-trifluoroethyl]-1-(3,5-difluoropyridin-2-yl)-7-[(3R,4S)-3,4-dihydroxypyrrolidin-1-yl]-4-oxo-1,4-dihydro-1,8-naphthyridine-3-carboxamide] |
| 94 nM | 100% |  | O=C(NC(CC(F)(F)F)C(F)(F)F)c1cn(-c2ncc(F)cc2F)c2nc(N3C[C@@H](O)CC3=O)ccc2c1=O (stereo partly drawn) [Example 159, 1-(3,5-Difluoropyridin-2-yl)-N-[1,1,1,4,4,4-hexafluorobutan-2-yl]-7-[(4S)-4-hydroxy-2-oxopyrrolidin-1-yl]-4-oxo-1,4-dihydro-1,8-naphthyridine-3-carboxamide] |
| 19 nM | 100% |  | CC(C)C[C@H](NC(=O)c1cn(-c2ncc(F)cc2F)c2nc(N3C[C@@H](O)CC3=O)ccc2c1=O)C(F)(F)F [Example 75, 1-(3,5-Difluoropyridin-2-yl)-7-[(4S)-4-hydroxy-2-oxopyrrolidin-1-yl]-4-oxo-N-[(2S)-1,1,1-trifluoro-4-methylpentan-2-yl]-1,4-dihydro-1,8-naphthyridine-3-carboxamide] |
| 575 nM | 85% |  | O=C(N[C@H](C1CC1)C(F)(F)F)c1cn(-c2ncccc2Cl)c2nc(N3C[C@@H](O)CC3=O)ccc2c1=O [Example 22, 1-(3-Chloropyridin-2-yl)-N-[(1R)-1-cyclopropyl-2,2,2-trifluoroethyl]-7-[(4S)-4-hydroxy-2-oxopyrrolidin-1-yl]-4-oxo-1,4-dihydro-1,8-naphthyridine-3-carboxamide] |
| 1060 nM | 89% |  | O=C(NC12CC(F)(C1)C2)c1cn(-c2ncc(F)cc2F)c2nc(N3C[C@@H](O)CC3=O)ccc2c1=O [Example 102, 1-(3,5-Difluoropyridin-2-yl)-N-(3-fluorobicyclo[1.1.1]pent-1-yl)-7-[(4S)-4-hydroxy-2-oxopyrrolidin-1-yl]-4-oxo-1,4-dihydro-1,8-naphthyridine-3-carboxamide] |
| 145 nM | 92% |  | O=C(NC(c1cccc(F)c1)C(F)(F)F)c1cn(-c2ncccc2Cl)c2nc(N3C[C@@H](O)CC3=O)ccc2c1=O (stereo partly drawn) [Example 23, 1-(3-Chloropyridin-2-yl)-7-[(4S)-4-hydroxy-2-oxopyrrolidin-1-yl]-4-oxo-N-[2,2,2-trifluoro-1-(3-fluorophenyl)ethyl]-1,4-dihydro-1,8-naphthyridine-3-carboxamide] |
| 305 nM | 100% |  | CC(CF)(CF)NC(=O)c1cn(-c2ncc(F)cc2F)c2nc(N3C[C@@H](O)[C@H](O)C3)ccc2c1=O [Example 103, N-(1,3-Difluoro-2-methylpropan-2-yl)-1-(3,5-difluoropyridin-2-yl)-7-[(3R,4R)-3,4-dihydroxypyrrolidin-1-yl]-4-oxo-1,4-dihydro-1,8-naphthyridine-3-carboxamide] |
| 115 nM | 90.5% |  | O=C(NC(C(F)(F)F)C(F)(F)F)c1cn(-c2ncc(F)cc2F)c2nc(N3CCNC3=O)ccc2c1=O [Example 158, 1-(3,5-Difluoropyridin-2-yl)-N-(1,1,1,3,3,3-hexafluoropropan-2-yl)-4-oxo-7-(2-oxoimidazolidin-1-yl)-1,4-dihydro-1,8-naphthyridine-3-carboxamide] |
| 250 nM | 98.5% |  | CC1C(=O)N(c2ccc3c(=O)c(C(=O)N[C@@H](C4CC4)C(F)(F)F)cn(-c4ncc(F)cc4F)c3n2)CC1O (mixture of isomers) [Example 104, N-[(1S)-1-Cyclopropyl-2,2,2-trifluoroethyl]-1-(3,5-difluoropyridin-2-yl)-7-[4-hydroxy-3-methyl-2-oxopyrrolidin-1-yl]-4-oxo-1,4-dihydro-1,8-naphthyridine-3-carboxamide] |
| 420 nM | 92% |  | O=C(N[C@@H](C1CC1)C(F)(F)F)c1cn(-c2ncc(F)cc2F)c2nc(N3CCN(CCO)C3=O)ccc2c1=O [Example 167, N-[(1S)-1-Cyclopropyl-2,2,2-trifluoroethyl]-1-(3,5-difluoropyridin-2-yl)-7-[3-(2-hydroxyethyl)-2-oxoimidazolidin-1-yl]-4-oxo-1,4-dihydro-1,8-naphthyridine-3-carboxamide] |
| 730 nM | 92% |  | O=C(N[C@H](C1CC1)C(F)(F)F)c1cn(-c2ncc(F)cc2Cl)c2nc(N3C[C@@H](O)[C@@H](O)C3)ccc2c1=O [Example 50, 1-(3-Chloro-5-fluoropyridin-2-yl)-N-[(1R)-1-cyclopropyl-2,2,2-trifluoroethyl]-7-[(3R,4S)-3,4-dihydroxypyrrolidin-1-yl]-4-oxo-1,4-dihydro-1,8-naphthyridine-3-carboxamide] |
| 57 nM |  | 96.00% | CC[C@@H](NC(=O)c1cn(-c2ncc(F)cc2F)c2nc(N3CC4CC4(O)C3)ccc2c1=O)C(F)(F)F (single isomer, unassigned) [Example 45] |
| 50 nM | 100% |  | CC(C)C[C@H](NC(=O)c1cn(-c2ncc(F)cc2F)c2nc(N3CCNC3=O)ccc2c1=O)C(F)(F)F [Example 157, 1-(3,5-Difluoropyridin-2-yl)-4-oxo-7-(2-oxoimidazolidin-1-yl)-N-[(2S)-1,1,1-trifluoro-4-methylpentan-2-yl]-1,4-dihydro-1,8-naphthyridine-3-carboxamide] |
| 275 nM | 98% |  | CC(NC(=O)c1cn(-c2ncc(F)cc2F)c2nc(N3C[C@@H](O)[C@H](O)C3)ccc2c1=O)C(F)(F)C(F)(F)F (single isomer, unassigned) [Example 89] |
| 63 nM | 100% |  | O=C(NC1(C(F)(F)F)CCCC1)c1cn(-c2ncc(F)cc2F)c2nc(N3C[C@@H](O)[C@H](O)C3)ccc2c1=O [Example 87, 1-(3,5-Difluoropyridin-2-yl)-7-[(3R,4R)-3,4-dihydroxypyrrolidin-1-yl]-4-oxo-N-[1-(trifluoromethyl)cyclopentyl]-1,4-dihydro-1,8-naphthyridine-3-carboxamide] |
